Test system: trypsin
Experiment: Trypsin activity, fluorescence assay (EnzChek Protease Assay Kit E6639)
Type: biochemical
Conditions: trypsin 100 μg/ml, 50 mM Tris-HCl pH 8.0
Procedure: Typsin activity was assessed using a commercial assay employing fluorescence measurement (EnzChek® Protease Assay Kit E6639 from Molecular Probes). The assayed solutions contained trypsin (100 μg/ml) and various amounts of the zinc salts in 50 mM Tris-HCl (pH 8.0).

Row | Compound | Protease inhibition (salt concentration 0.0001 wt %) [%] | Protease inhibition (salt concentration 0.001 wt %) [%] | Protease inhibition (salt concentration 0.01 wt %) [%] | Protease inhibition (salt concentration 0.1 wt %) [%] | Protease inhibition (salt concentration 1 wt %) [%]
1 | [Cl-].[Cl-].[Zn+2] [Zinc Chloride] | 7 | 20 | 69 | 93 | 96
2 | O.O.O.O.O.O.O.O=S(=O)([O-])[O-].[Zn+2] [Zinc Sulfate Heptahydrate] | 4 | 14 | 33 | 92 | 93
3 | Zinc Gluconate | −4 | 10 | 28 | 94 | 94

From patent US20160303009A1, “HAIR CARE COMPOSITION” (CONOPCO, INC., D/B/A UNILEVER, priority 2013, published 2016)
